Assays:
Drosophila melanogaster = assay: Fly Study I (protection from MTX-induced lethality); type: in vivo; details: for Flies Alive (Number): Fly Study I method, test compound + MTX (MTX Alone: no adjuvant), Table 3
Description: In this study, Drosophila melanogaster eggs (50 eggs per vial) were treated with either 0.005 mg TK-112690+0.4 mg MTX (Group 1), 0.01 mg TK-112690+0.4 mg MTX (Group 2), 0.04 mg TK-112690+0.4 mg MTX (Group 3), 0.1 mg TK-112690+0.4 mg MTX (Group 4), 0.4 mg MTX alone (Group 5) or saline blank (Group 6). Two vials of eggs for each dose group were evaluated for viability (viable flies plus pupae).
The efficacy of cancer chemotherapy can be improved if agents are available to reduce the adverse events associated with treatment with cytotoxic agents. To this end, Drosophila melanogaster (commonly know as the fruit fly) is an ideal organism to screen chemical compounds for such side-effect-reducing agents. This study is aimed at finding a dose of a 2,2′-anhydropyrimidine test article that protects against MTX-induced lethality in insects.
Increasing amounts of a 2,2′-anhydropyrimidine test article (typically 0.03 to 0.1 mg) are mixed in an aqueous solution with 0.3 (or 0.4) mg MTX. Four milliliters (mL) of a 2,2′-anhydropyrimidine test article+MTX solutions are added to an appropriate amount of instant fly medium. Fruit fly eggs are added to a 2,2′-anhydropyrimidine test article+MTX treated medium and incubated for up to 31 days. After the 31 day incubation, each assay is scored by the number of mature fly and pupae per vial.
The assays are set up in clear sterile polystyrene narrow diameter vials from Applied Scientific (Hampton, N.H.). Vials are stored in trays and incubated in a darkened 25° C. incubator.
Reagents and materials used are: 50 mg/mL MTX in H2O (pH 8), 20 mg/mL of the 2,2′-anhydropyrimidine test article in H2O, water, sterile polystyrene narrow diameter vials from Applied Scientific, Instant Drosophila Food Medium, Oregon-R Drosophila melanogaster, 25° C. incubator, and 15 mL polystyrene conical tubes
Each assay is performed in a separate fly vial. Increasing amounts of a 2,2′-anhydropyrimidine (0.005 to 1.0 mg) are tested for MTX side-effect-reduction on fly eggs. Amounts of the 2,2′-anhydropyrimidine test article are drawn from a 20 mg/mL stock solution dissolved in water. Nine mL of the 2,2′-anhydropyrimidine+0.3 (or 0.4) mg MTX solutions are pre-mixed with water in a 15 mL conical tube. Duplicate assays receive 4 mL of the 2,2′-anhydropyrimidine test article+0.3 (or 0.4) mg MTX solutions. Pre-measured amounts of instant drosophila medium are added to each assay to achieve optimal hydration level. Controls are (1) 4 mL water alone and (2) 0.3 (or 0.4) mg MTX alone. Precisely 50 fly eggs aged for ˜18 hours are added to each assay. Assays are capped with a fitted plug and incubated for 30 days in a darkened 25° C. incubator. Assays are scored by the number of dead pupae or adult flies per vial.

CCRF-CEM human tumors = assay: Mouse Study IV (xenograft with CCRF-CEM implants); type: in vivo, SCID mice; details: MTX 7.5 mg/kg/injection + TK-112690 30 mg/kg ±3 hrs ip; day 27; p=1
Description: In this study, n=10 SCID mice per dose group were treated with CCRF-CEM human tumors and the tumors allowed to grow to a size of approximately 100 mg. Then the animals were treated by intraperitoneal (ip) injection with either control 20% DMSO/80% PBS (1×/day)×5 days (Group 1), MTX 7.5 mg/kg/injection (1×/day)×5 days (Group 2) or MTX 7.5 mg/kg/inj. (1×/day)×5 days+TK-112690 30 mg/kg/inj.±3 hrs (group 3). The Figure provides tumor sizes in each of the 3 groups on Day 27 of the study.
A xenograft study was performed to analyze the effect of TK-112690. administration on the in vivo efficacy of MTX against a human cancer. Human CCRF-CEM (T-ALL) cells were implanted subcutaneously into SCID mice. Tumor volumes were recorded on a regular basis, and once tumors had become established, treatment was given. […] All treatments were given ip, and TK-112690 was give 3 hours prior to and 3 hours after MTX administration.

[1] = Mouse Study VI (plasma uridine and TK-112690 following TK-112690 treatment); type: in vivo, CD-1 female mice
Description: In this study, CD-1 female mice were injected ip with 120 mg/kg TK-112690 and plasma from the animals analyzed by HPLC using UV detection for TK-112690 and uridine. Concentrations of uridine and TK-112690 in plasma samples collected 0.08, 0.50, 1, 2, 4 or 12 hours post TK-112690 injection were determined by HPLC using UV detection. […] An increase in plasma uridine was noted almost immediately following administration of TK-112690. At 0.5 hour post TK-112690 dose, a 100 μg/mL plasma concentration TK-112690 is associated with a plasma uridine concentration of approximately 2 μg/mL of uridine (baseline uridine concentration approximately 0.5 μg/mL). As expected, inhibition of UPase by TK-112690 results in elevation of plasma uridine.
Plasma uridine concentration was determined by HPLC using UV detectionafter animals were treated with TK-112690 as follows. TK-112690 was dissolved in PBS to achieve a concentration of 500 mg/mL. CD-1 female mice were injected ip with a range of TK-112690 doses (0, 15, 30, 60 and 120 mg/kg) and plasma from the animals analyzed for TK-112690 uridine concentrations expected to be elevated through UPase inhibition by TK-112690. Plasma uridine concentrations were determined from plasma samples collected 0.08, 0.50, 1, 2, 4 or 12 hours post TK-112690 injection.
HPLC analysis was done at room temperature using a ThermoFinnigan Spectra System equipped with degasser, pump, autosampler and UV detector. Chromatograms will be constructed from a chart recorder equipped with a pen. […]
The micromolar concentration of plasma uridine was determined by linear equation (y=mx+b) generated from uridine and 5-FU calibration curve. The y value is calculated by taking ratio of peak heights (mm) of uridine and 5-FU. All peak heights from HPLC chromatograms were measured in millimeters using a ruler.
An identical approach was employed to quantitate TK-112690 in the samples except the response for TK-112690 was attenuated by a response factor determined from the injection into the HPLC of identical amounts of TK-112690 and uridine, […]

SMILES | effect of MTX on lethality in the flies (Drosophila melanogaster; 0.4 mg MTX alone vs saline, p<0.01) | Flies Alive (Number) (Drosophila melanogaster) | protection from MTX lethality in flies (viable flies plus pupae) (Drosophila melanogaster; 0.005 to 0.1 mg TK-112690 + 0.4 mg MTX, p<0.01 vs MTX alone or saline) | tumor volume, MTX+TK-112690 versus MTX (CCRF-CEM human tumors) | dose dependence of plasma concentrations of TK-112690 ([1]; 0, 15, 30, 60 and 120 mg/kg ip) | plasma uridine concentration ([1]; 0.5 hour post TK-112690 dose, at 100 μg/mL plasma TK-112690, baseline approximately 0.5 μg/mL) | concentration at 0.5 h ([1]; female, CD-1, plasma, 120 mg/kg, 0.5 hour post TK-112690 dose, ip, mouse) [µg/mL]
CN(Cc1cnc2nc(N)nc(N)c2n1)c1ccc(C(=O)N[C@@H](CCC(=O)O)C(=O)O)cc1 [MTX, N-[4-[[(2,4-diamino-6-pteridinyl)methyl]methylamino]benzoyl]-L-glutamic acid, reference compound] | highly significant | 0 | – | – | – | – | –
Cc1cn2c(nc1=O)O[C@H]1[C@H](O)[C@@H](CO)O[C@H]12 [TK-112690, 2,2′-anhydro-5-methyluridine] | – | 8 | highly significant | not significantly different | increased with increasing doses | approximately 2 μg/mL | 100
